Laboratory results taken from patent publication US20230085307A1, “PYRIDAZINONE COMPOUND AND HERBICIDE” (NISSAN CHEMICAL CORPORATION, priority 2019, published 2023).

How the values were obtained:
barnyard grass [1] = experiment: Test Example 3: herbicidal effect by foliage application, Wagner pot (Table 18, symbol H); assay type: in vivo, barnyard grass (Echinochloa crus-galli); details: amount of applied herbicide 320 g/ha
Outline: (§1)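 Plants were sown in alluvial soil held under 0.1–0.5 cm standing water and grown 14 days in a greenhouse at 25–30 °C. An emulsifiable formulation, water-diluted to the set dose, was then sprayed onto the foliage, and effects were scored three weeks later using previously defined criteria.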

Chinese sprangletop = experiment: Test Example 3: herbicidal effect by foliage application, Wagner pot (Table 18, symbol D); assay type: in vivo, chinese sprangletop (Leptochloa chinensis); details: amount of applied herbicide 320 g/ha
Outline: as §1

rice flat sedge = experiment: Test Example 3: herbicidal effect by foliage application, Wagner pot (Table 18, symbol E); assay type: in vivo, rice flat sedge (Cyperus iria); details: amount of applied herbicide 320 g/ha
Outline: as §1

southern crabgrass = experiment: Test Example 5: herbicidal effect by foliage application, plastic box (Table 20, symbol F); assay type: in vivo, southern crabgrass (Digitaria ciliaris); details: foliage application, 320 g/ha, evaluated three weeks after application
Outline: (§2)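 Plants sown in sterilized diluvial soil and grown 14 days in a greenhouse at 25° C to 30° C, then sprayed on the foliage with the compound's emulsion diluted in water to a predetermined herbicide amount. Injury to weeds and crops scored three weeks after application on a visual rating scale.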

green foxtail = experiment: Test Example 5: herbicidal effect by foliage application, plastic box (Table 20, symbol G); assay type: in vivo, green foxtail (Setaria viridis); details: foliage application, 320 g/ha, evaluated three weeks after application
Outline: as §2

barnyard grass [2] = experiment: Test Example 5: herbicidal effect by foliage application, plastic box (Table 20, symbol H); assay type: in vivo, barnyard grass (Echinochloa crus-galli); details: foliage application, 320 g/ha, evaluated three weeks after application
Outline: as §2

wild oat = experiment: Test Example 5: herbicidal effect by foliage application, plastic box (Table 20, symbol I); assay type: in vivo, wild oat (Avena fatua); details: foliage application, 320 g/ha, evaluated three weeks after application
Outline: as §2

blackgrass = experiment: Test Example 5: herbicidal effect by foliage application, plastic box (Table 20, symbol J); assay type: in vivo, blackgrass (Alopecurus myosuroides); details: foliage application, 320 g/ha, evaluated three weeks after application
Outline: as §2

Italian ryegrass = experiment: Test Example 5: herbicidal effect by foliage application, plastic box (Table 20, symbol K); assay type: in vivo, Italian ryegrass (Lolium multiflorum); details: foliage application, 320 g/ha, evaluated three weeks after application
Outline: as §2

windgrass = experiment: Test Example 5: herbicidal effect by foliage application, plastic box (Table 20, symbol L); assay type: in vivo, windgrass (Apera spica-venti); details: foliage application, 320 g/ha, evaluated three weeks after application
Outline: as §2

velvetleaf = experiment: Test Example 5: herbicidal effect by foliage application, plastic box (Table 20, symbol M); assay type: in vivo, velvetleaf (Abutilon theophrasti); details: foliage application, 320 g/ha, evaluated three weeks after application
Outline: as §2

redroot pigweed = experiment: Test Example 5: herbicidal effect by foliage application, plastic box (Table 20, symbol N); assay type: in vivo, redroot pigweed (Amaranthus retroflexus); details: foliage application, 320 g/ha, evaluated three weeks after application
Outline: as §2

lambsquarters = experiment: Test Example 5: herbicidal effect by foliage application, plastic box (Table 20, symbol O); assay type: in vivo, lambsquarters (Chenopodium album); details: foliage application, 320 g/ha, evaluated three weeks after application
Outline: as §2

chickweed = experiment: Test Example 5: herbicidal effect by foliage application, plastic box (Table 20, symbol P); assay type: in vivo, common chickweed (Stellaria media); details: foliage application, 320 g/ha, evaluated three weeks after application
Outline: as §2

persian speedwell = experiment: Test Example 5: herbicidal effect by foliage application, plastic box (Table 20, symbol R); assay type: in vivo, Persian speedwell (Veronica persica); details: foliage application, 320 g/ha, evaluated three weeks after application
Outline: as §2

CSc1ccccc1-c1sc2ccc(C)cc2c1-c1c(O)c(C)nn(C)c1=O [2-142]
herbicidal effect on H: barnyard grass (barnyard grass [1]): 2 (Herbicidal rate of 20% or more and less than 40%) | herbicidal effect on D: Chinese sprangletop (Chinese sprangletop): 0 (Herbicidal rate of 5% or less (almost no effect)) | herbicidal effect on E: rice flat sedge (rice flat sedge): 2 (Herbicidal rate of 20% or more and less than 40%) | herbicidal effect on F: southern crabgrass (criteria 0-5) (southern crabgrass): 0 (Herbicidal rate of 5% or less (almost no effect)) | herbicidal effect on G: green foxtail (criteria 0-5) (green foxtail): 0 (Herbicidal rate of 5% or less (almost no effect)) | herbicidal effect on H: barnyard grass (criteria 0-5) (barnyard grass [2]): 0 (Herbicidal rate of 5% or less (almost no effect)) | herbicidal effect on I: wild oat (criteria 0-5) (wild oat): 1 (Herbicidal rate of 5% or more and less than 20%) | herbicidal effect on J: blackgrass (criteria 0-5) (blackgrass): 1 (Herbicidal rate of 5% or more and less than 20%) | herbicidal effect on K: Italian ryegrass (criteria 0-5) (Italian ryegrass): 1 (Herbicidal rate of 5% or more and less than 20%) | herbicidal effect on L: windgrass (criteria 0-5) (windgrass): 0 (Herbicidal rate of 5% or less (almost no effect)) | herbicidal effect on M: velvetleaf (criteria 0-5) (velvetleaf): 0 (Herbicidal rate of 5% or less (almost no effect)) | herbicidal effect on N: redroot pigweed (criteria 0-5) (redroot pigweed): 0 (Herbicidal rate of 5% or less (almost no effect)) | herbicidal effect on O: lambsquarters (criteria 0-5) (lambsquarters): 0 (Herbicidal rate of 5% or less (almost no effect)) | herbicidal effect on P: chickweed (criteria 0-5) (chickweed): 4 (Herbicidal rate of 70% or more and less than 90%) | herbicidal effect on R: persian speedwell (criteria 0-5) (persian speedwell): 3 (Herbicidal rate of 40% or more and less than 70%)

CCCC(=O)Oc1c(C)nn(C)c(=O)c1-c1c(-c2ccc([N+](=O)[O-])cc2)sc2ccc(C)cc12 [2-145]
herbicidal effect on H: barnyard grass (barnyard grass [1]): 3 (Herbicidal rate of 40% or more and less than 70%) | herbicidal effect on D: Chinese sprangletop (Chinese sprangletop): 0 (Herbicidal rate of 5% or less (almost no effect)) | herbicidal effect on E: rice flat sedge (rice flat sedge): 4 (Herbicidal rate of 70% or more and less than 90%) | herbicidal effect on F: southern crabgrass (criteria 0-5) (southern crabgrass): 1 (Herbicidal rate of 5% or more and less than 20%) | herbicidal effect on G: green foxtail (criteria 0-5) (green foxtail): 3 (Herbicidal rate of 40% or more and less than 70%) | herbicidal effect on H: barnyard grass (criteria 0-5) (barnyard grass [2]): 3 (Herbicidal rate of 40% or more and less than 70%) | herbicidal effect on I: wild oat (criteria 0-5) (wild oat): 0 (Herbicidal rate of 5% or less (almost no effect)) | herbicidal effect on J: blackgrass (criteria 0-5) (blackgrass): 0 (Herbicidal rate of 5% or less (almost no effect)) | herbicidal effect on K: Italian ryegrass (criteria 0-5) (Italian ryegrass): 3 (Herbicidal rate of 40% or more and less than 70%) | herbicidal effect on L: windgrass (criteria 0-5) (windgrass): 0 (Herbicidal rate of 5% or less (almost no effect)) | herbicidal effect on M: velvetleaf (criteria 0-5) (velvetleaf): 4 (Herbicidal rate of 70% or more and less than 90%) | herbicidal effect on N: redroot pigweed (criteria 0-5) (redroot pigweed): 4 (Herbicidal rate of 70% or more and less than 90%) | herbicidal effect on O: lambsquarters (criteria 0-5) (lambsquarters): 4 (Herbicidal rate of 70% or more and less than 90%) | herbicidal effect on P: chickweed (criteria 0-5) (chickweed): 5 (Herbicidal rate of 90% or more (almost completely withered)) | herbicidal effect on R: persian speedwell (criteria 0-5) (persian speedwell): 5 (Herbicidal rate of 90% or more (almost completely withered))

COc1ccc(-c2sc3ccc(C)cc3c2-c2c(O)c(C)nn(C)c2=O)cc1OC [2-152]
herbicidal effect on H: barnyard grass (barnyard grass [1]): 0 (Herbicidal rate of 5% or less (almost no effect)) | herbicidal effect on D: Chinese sprangletop (Chinese sprangletop): 0 (Herbicidal rate of 5% or less (almost no effect)) | herbicidal effect on E: rice flat sedge (rice flat sedge): 3 (Herbicidal rate of 40% or more and less than 70%) | herbicidal effect on F: southern crabgrass (criteria 0-5) (southern crabgrass): 0 (Herbicidal rate of 5% or less (almost no effect)) | herbicidal effect on G: green foxtail (criteria 0-5) (green foxtail): 0 (Herbicidal rate of 5% or less (almost no effect)) | herbicidal effect on H: barnyard grass (criteria 0-5) (barnyard grass [2]): 0 (Herbicidal rate of 5% or less (almost no effect)) | herbicidal effect on I: wild oat (criteria 0-5) (wild oat): 0 (Herbicidal rate of 5% or less (almost no effect)) | herbicidal effect on J: blackgrass (criteria 0-5) (blackgrass): 0 (Herbicidal rate of 5% or less (almost no effect)) | herbicidal effect on K: Italian ryegrass (criteria 0-5) (Italian ryegrass): 2 (Herbicidal rate of 20% or more and less than 40%) | herbicidal effect on L: windgrass (criteria 0-5) (windgrass): 0 (Herbicidal rate of 5% or less (almost no effect)) | herbicidal effect on M: velvetleaf (criteria 0-5) (velvetleaf): 0 (Herbicidal rate of 5% or less (almost no effect)) | herbicidal effect on N: redroot pigweed (criteria 0-5) (redroot pigweed): 0 (Herbicidal rate of 5% or less (almost no effect)) | herbicidal effect on O: lambsquarters (criteria 0-5) (lambsquarters): 0 (Herbicidal rate of 5% or less (almost no effect)) | herbicidal effect on P: chickweed (criteria 0-5) (chickweed): 5 (Herbicidal rate of 90% or more (almost completely withered)) | herbicidal effect on R: persian speedwell (criteria 0-5) (persian speedwell): 4 (Herbicidal rate of 70% or more and less than 90%)

COc1cc(F)ccc1-c1sc2ccc(N(C)C(C)=O)cc2c1-c1c(O)c(C)nn(C)c1=O [2-177]
herbicidal effect on H: barnyard grass (barnyard grass [1]): 3 (Herbicidal rate of 40% or more and less than 70%) | herbicidal effect on D: Chinese sprangletop (Chinese sprangletop): 4 (Herbicidal rate of 70% or more and less than 90%) | herbicidal effect on E: rice flat sedge (rice flat sedge): 3 (Herbicidal rate of 40% or more and less than 70%) | herbicidal effect on F: southern crabgrass (criteria 0-5) (southern crabgrass): 0 (Herbicidal rate of 5% or less (almost no effect)) | herbicidal effect on G: green foxtail (criteria 0-5) (green foxtail): 3 (Herbicidal rate of 40% or more and less than 70%) | herbicidal effect on H: barnyard grass (criteria 0-5) (barnyard grass [2]): 0 (Herbicidal rate of 5% or less (almost no effect)) | herbicidal effect on I: wild oat (criteria 0-5) (wild oat): 0 (Herbicidal rate of 5% or less (almost no effect)) | herbicidal effect on J: blackgrass (criteria 0-5) (blackgrass): 3 (Herbicidal rate of 40% or more and less than 70%) | herbicidal effect on K: Italian ryegrass (criteria 0-5) (Italian ryegrass): 0 (Herbicidal rate of 5% or less (almost no effect)) | herbicidal effect on L: windgrass (criteria 0-5) (windgrass): 3 (Herbicidal rate of 40% or more and less than 70%) | herbicidal effect on M: velvetleaf (criteria 0-5) (velvetleaf): 3 (Herbicidal rate of 40% or more and less than 70%) | herbicidal effect on N: redroot pigweed (criteria 0-5) (redroot pigweed): 4 (Herbicidal rate of 70% or more and less than 90%) | herbicidal effect on O: lambsquarters (criteria 0-5) (lambsquarters): 3 (Herbicidal rate of 40% or more and less than 70%) | herbicidal effect on P: chickweed (criteria 0-5) (chickweed): 5 (Herbicidal rate of 90% or more (almost completely withered)) | herbicidal effect on R: persian speedwell (criteria 0-5) (persian speedwell): 4 (Herbicidal rate of 70% or more and less than 90%)

Cc1nn(C)c(=O)c(-c2c(-c3cccc(SC(C)C)c3)sc3ccc(F)cc23)c1O [2-250]
herbicidal effect on H: barnyard grass (barnyard grass [1]): 3 (Herbicidal rate of 40% or more and less than 70%) | herbicidal effect on D: Chinese sprangletop (Chinese sprangletop): 2 (Herbicidal rate of 20% or more and less than 40%) | herbicidal effect on E: rice flat sedge (rice flat sedge): 3 (Herbicidal rate of 40% or more and less than 70%) | herbicidal effect on F: southern crabgrass (criteria 0-5) (southern crabgrass): 0 (Herbicidal rate of 5% or less (almost no effect)) | herbicidal effect on G: green foxtail (criteria 0-5) (green foxtail): 0 (Herbicidal rate of 5% or less (almost no effect)) | herbicidal effect on H: barnyard grass (criteria 0-5) (barnyard grass [2]): 0 (Herbicidal rate of 5% or less (almost no effect)) | herbicidal effect on I: wild oat (criteria 0-5) (wild oat): 2 (Herbicidal rate of 20% or more and less than 40%) | herbicidal effect on J: blackgrass (criteria 0-5) (blackgrass): 3 (Herbicidal rate of 40% or more and less than 70%) | herbicidal effect on K: Italian ryegrass (criteria 0-5) (Italian ryegrass): 1 (Herbicidal rate of 5% or more and less than 20%) | herbicidal effect on L: windgrass (criteria 0-5) (windgrass): 3 (Herbicidal rate of 40% or more and less than 70%) | herbicidal effect on M: velvetleaf (criteria 0-5) (velvetleaf): 2 (Herbicidal rate of 20% or more and less than 40%) | herbicidal effect on N: redroot pigweed (criteria 0-5) (redroot pigweed): 5 (Herbicidal rate of 90% or more (almost completely withered)) | herbicidal effect on O: lambsquarters (criteria 0-5) (lambsquarters): 3 (Herbicidal rate of 40% or more and less than 70%) | herbicidal effect on P: chickweed (criteria 0-5) (chickweed): 5 (Herbicidal rate of 90% or more (almost completely withered)) | herbicidal effect on R: persian speedwell (criteria 0-5) (persian speedwell): 5 (Herbicidal rate of 90% or more (almost completely withered))
